Data from a melting point compilation (Tetko et al.; mined from patent text by program, amines drawn as free bases though some values may be those of a salt).

| SMILES | melting point |
| --- | --- |
| CC1(Cc2cc3[nH]c(=O)oc3cc2Br)OCCO1 | 117 to 119 °C |
| CC(=O)c1cccc(Oc2ncccc2C(=O)NCC2CCC(C(C)(C)O)CC2)c1 (stereo not drawn) | 105 to 107 °C |
| CCc1cn(-c2nccs2)c2c1C(=O)CC(C)(C)C2 | 58 to 60 °C |
| O=c1nc(-c2ccccn2)sc2ccc(OCCCCCCO)cc12 | 136 to 137 °C |
| Cc1ncc2n1-c1ccc(Cl)cc1C(c1ccccc1)=NC2 | 187 to 188 °C |
| C#Cc1ccc2c(c1)C(=O)CC(C)(C)S2 | 63 to 66 °C |
| Cc1nc2ccc3c(c2nc1C)C(=O)c1ccccc1C3=O | > 400 °C |
| CCCc1nccn1-c1ncnc2nc[nH]c12 | 242 to 244 °C |
| C#CCON=C(C(C)=NOCc1ccccc1C(=COC)C(=O)OC)c1ccc(F)cc1 | 91 to 93 °C |
| CNC1CCCN(C(=O)c2ccc(NC(=O)c3ccccc3C)s2)c2ccc(Cl)cc21 (stereo not drawn) | 213 to 216 °C |
| O=C(O)C(=O)c1ccc(OCCOc2ccc3cc4ccccc4cc3c2)cc1 | 213 to 214 °C |
| Cc1cc(C)c(Nc2nc(C)ccc2S(=O)(=O)c2ccc(OCc3ccccn3)cc2)c(C)c1 | 182 to 184 °C |
| CCN(CC)CCC1(C(N)=O)Cc2ccccc2N(CC)c2ccccc21 (stereo not drawn) | 95 to 97 °C |
| Cn1nc(C(F)(F)F)cc1Oc1cc(OC(F)F)cnn1 | 86 to 88 °C |
| CC(=O)c1cc(C)c(OCC(=O)O)c(C)c1 | 166 to 167 °C |
| N#CC1=CCC23OCOC2=C1c1c(C#N)cccc1OCO3 (stereo not drawn) | 213 to 215 °C |
| CC(Cl)C(=O)N1c2ccccc2C(=O)Nc2cccnc21 (stereo not drawn) | 215 to 218 °C |
| O=S1(=O)CCCSC(S)=N1 | 134 °C |
| O=C(O)CCCC#CCN1C(=O)c2ccccc2C1=O | 120 to 122 °C |
| O=C(O)C(Cc1ccccc1)C(=O)NOCc1ccccc1 (stereo not drawn) | 147 °C |
| Cc1ccc(CNC(=O)C2=C(C(=O)Nc3ccc(Br)cc3F)CCCC2)cc1 | 167 to 168 °C |
| Cc1oc(NC(=O)CCl)c(C#N)c1C | 114 °C |
| NCCCNC(=O)Cn1ncc(-c2ccccc2)c1-c1ccccc1 | 119 to 120 °C |
| O=C(CN1CCC(Cc2ccccc2)CC1)Nc1ccc2[nH]ncc2c1 | 170 to 174 °C |
| Cc1c(CC(=O)NCCCO)cc(-c2ccc(S(C)(=O)=O)cc2)n1-c1ccc(F)cc1 | 105 °C |

| SMILES | melting point |
| --- | --- |
| N#Cc1ccc(N(Cc2ccc(OS(N)(=O)=O)c(Cl)c2)n2cnnc2)cc1-c1cc2ccccc2o1 | 214 to 215 °C |
| O=C1OC(c2ccccc2)=NC1=Cc1cc(Cl)ccc1Sc1cccs1 | 125 to 127 °C |
| CN(C(CCn1c(=O)cc(C(F)(F)F)[nH]c1=O)C(=O)NO)S(=O)(=O)c1ccc(Oc2cccc(F)c2)cc1 (stereo not drawn) | 168 to 169 °C |
| C[C@@H](NC(=O)c1csc(-c2ccccc2)n1)[C@](O)(Cn1cncn1)c1ccc(F)cc1F | 174 to 175 °C |
| CCOC(=O)c1ccc(C(=O)CC(O)(c2cc(Cl)cc(Cl)c2)C(F)(F)F)cc1C (stereo not drawn) | 72 to 74 °C |
| O=C(CCCCl)Nc1ccc2[nH]ncc2c1 | 160 to 161 °C |
| CS(=O)(=O)N1CCN(c2cc3ccccc3c(=O)[nH]2)CC1 | 257 to 259 °C |
| O=[N+]([O-])CS(=O)(=O)c1c[nH]c2ccccc12 | 181 to 182 °C |
| COC(CN/C=C\C(=C(C#N)C#N)c1ccc2cc(N(C)C)ccc2c1)OC | 158 to 159 °C |
| COC(=O)CCC(=O)c1cc2c(cc1Cl)CC(NC(=O)OC)CC2 (stereo not drawn) | 86 to 89 °C |
| CCCc1c(OCCCCC#N)ccc(C(=O)c2ccccc2O)c1O | 81 to 82 °C |
| O=C(Nc1cccc(-c2cc(-c3c(Cl)cccc3Cl)no2)c1)C(Cl)Cl | 167 °C |
| Cn1cc(C(=O)NCc2ccc(Cl)cc2)c(=O)c2cc(CN3CCOCC3)cc(C#CCO)c21 | 180 to 183 °C |
| Oc1cccc(-c2noc3cc(F)ccc23)c1 | 144 to 145 °C |
| O=C(O)CCCCCCCNS(=O)(=O)c1ccc([N+](=O)[O-])cc1 | 126 to 127 °C |
| CCC(C)(C)C1CC=C(C(=O)O)CC1 (stereo not drawn) | 123 to 125 °C |
| Cc1ccc(CN2CCN([C@@H](CNS(=O)(=O)c3ccc(OCc4cc(C)nc5ccccc45)cc3)C(=O)NO)CC2)cc1 | 170 °C |
| CC(C)(C)[Si](C)(C)Oc1ccccc1-c1cc(-c2cccc([N+](=O)[O-])c2)c(C#N)c(NC(=O)c2ccsc2)n1 | 139 to 142 °C |
| C=CCn1c(=Nc2ccccc2)sc2ncccc2c1=O | 94 to 95 °C |
| Cc1ccccc1COCn1cc(Cl)cnc1=O | 88 °C |
| COc1ccc(N2CCN(c3c(C)c(C=O)c4c(c3C)C(c3ccc(C)cc3)C(C)(C)O4)CC2)cc1 (stereo not drawn) | 175 to 177 °C |
| Cn1c(N2CC3CC2CN3C(=O)OC(C)(C)C)nc(-c2ccncn2)cc1=O (stereo not drawn) | 198 to 200 °C |
| NS(=O)(=O)Cc1ccccc1-c1nnc(S)o1 | 224 to 227 °C |
| O=c1c2cc(Br)ccc2nc(C(S)c2ncnc3[nH]cnc23)n1-c1ccccc1Cl (stereo not drawn) | 212 to 242 °C |
| N#Cc1ccc2cc(C(N)=O)[nH]c2c1 | 241 to 242 °C |

| SMILES | melting point |
| --- | --- |
| OC(CN1CCN(c2ccncc2)CC1)c1ccc2nonc2c1 (stereo not drawn) | 159 to 162 °C |
| CCCC(Cc1ccc(OCCN2CCCCCC2)cc1)(C(=O)OCC)S(=O)(=O)c1ccc(OC)cc1 (stereo not drawn) | 55 °C |
| NC1=NS(=O)(=O)c2cccc(Cl)c21 | 218 °C |
| Cc1cc(C(=O)C(C#N)C(=O)Nc2ccccc2)c(C)n1C (stereo not drawn) | 158 to 160 °C |
| Cc1cc(C)c2c(c1C)OC(=O)C2c1ccc(C(C)C)cc1 (stereo not drawn) | 107 to 108 °C |
| Oc1ccc2cc(OCCN3CCC(Cc4ccc(F)cc4)CC3)ccc2c1 | 184 to 185 °C |
| Cc1ncc(CCC(=O)O)s1 | 120 °C |
| O=S(=O)(c1ccccc1)c1c[nH]c2ccncc12 | 261 to 263 °C |
| CC(C#CC1CC(Oc2ccc(C(F)(F)F)cc2)C1)N(O)C(N)=O (single isomer, unassigned; (+)) | 113 to 114 °C |
| COC(=O)c1sc(C)c2[nH]c(C(F)(F)C(F)(F)F)nc12 | 156 to 157 °C |
| COc1ccccc1SCC1SCCN1C(=S)CC(C)=O (stereo not drawn) | 62 to 64 °C |
| Clc1nc(N2CCOCC2)c2ncnc(Cl)c2n1 | 179 to 181 °C |
| CC(=S)NCC1CN(c2ccc(C(=O)Oc3c(F)c(F)c(F)c(F)c3F)c(F)c2)C(=O)O1 (stereo not drawn) | 163 to 164 °C |
| CC(C)CCC(=O)Nc1c(C(O)(C(F)(F)F)C(F)(F)F)ccc2ccccc12 | 62 to 63 °C |
| CC(=O)NNc1nc(-c2ccccc2)c2cc(Cl)ccc2n1 | 228 °C |
| O=C(O)CN1CCNCC1 | 130 to 132 °C |
| CSc1ccc(N2CCN(c3c(C)c(C)c4c(c3C)CC(C)(C)O4)CC2)cc1 | 211 to 213 °C |
| CCOC(=O)N(C)n1cccc1C(=O)c1ccccc1F | 64 to 66 °C |
| CC(=O)N1C(C(=O)NCCO[N+](=O)[O-])CSC1c1ccccc1C(=O)O (stereo not drawn) | 148 to 150 °C |
| CCCCc1nc(S(C)=O)c(C(=O)OCC)n1CC1Oc2ccc(Cl)cc2O1 (stereo not drawn) | 103 °C |
| CCC(=O)c1cccc(C(=O)Nc2ccccn2)c1 | 128 to 129 °C |
| O=C(c1ccc(Cl)cc1)c1cc([N+](=O)[O-])ccc1N1CCC(O)CC1 | 142 °C |
| CC(CO)Oc1cc(-n2nc3n(c2=O)CCCC3)c(Cl)cc1Cl (stereo not drawn) | 54 to 57 °C |
